ChEMBL document CHEMBL1201862, “PubChem BioAssay data set” (2004)
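The compound was tested at five concentrations on cells cultured in 96-well plates, with a 48-hour exposure period. GI50: concentration for 50% inhibition of growth.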 Activity calls are given as the source filed them. Cut-off read from the data, not from the text of the source: active = GI50 up to about 1.1 µM and inactive = higher.

Columns and labels:
Test in all cases: NCI-60 cell line screen, 48 h
NCI-H460 = tested on: NCI-H460
UACC-62 = tested on: UACC-62
SF-295 = tested on: SF-295
HT-29 = tested on: HT-29
SF-268 = tested on: SF-268
IGROV-1 = tested on: IGROV-1
M14 = tested on: M14
SW-620 = tested on: SW-620
HOP-62 = tested on: HOP-62
PC-3 = tested on: PC-3
OVCAR-5 = tested on: OVCAR-5
ACHN = tested on: ACHN
786-0 = tested on: 786-0
CCRF-CEM = tested on: CCRF-CEM
Hs-578T = tested on: Hs-578T
SK-OV-3 = tested on: SK-OV-3
HCC 2998 = tested on: HCC 2998
SK-MEL-5 = tested on: SK-MEL-5
NCI/ADR-RES = tested on: NCI/ADR-RES
A549 = tested on: A549
RXF 393 = tested on: RXF 393
BT-549 = tested on: BT-549
CAKI-1 = tested on: CAKI-1
HOP-92 = tested on: HOP-92
COLO 205 = tested on: COLO 205
MDA-N = tested on: MDA-N
OVCAR-8 = tested on: OVCAR-8
LOX IMVI = tested on: LOX IMVI
TK-10 = tested on: TK-10
HL-60 = tested on: HL-60
KM12 = tested on: KM12
NCI-H23 = tested on: NCI-H23
NCI-H522 = tested on: NCI-H522
HCT-116 = tested on: HCT-116
OVCAR-4 = tested on: OVCAR-4
EKVX = tested on: EKVX
MDA-MB-231 = tested on: MDA-MB-231
DU-145 = tested on: DU-145
SN12C = tested on: SN12C
MCF7 = tested on: MCF7
UO-31 = tested on: UO-31
MDA-MB-435 = tested on: MDA-MB-435
SNB-75 = tested on: SNB-75
HCT-15 = tested on: HCT-15
SK-MEL-28 = tested on: SK-MEL-28
OVCAR-3 = tested on: OVCAR-3
SF-539 = tested on: SF-539
NCI-H226 = tested on: NCI-H226
UACC-257 = tested on: UACC-257
U-251 = tested on: U-251
SK-MEL-2 = tested on: SK-MEL-2
MOLT-4 = tested on: MOLT-4
SNB-19 = tested on: SNB-19
A498 = tested on: A498
T47D = tested on: T47D
SR = tested on: SR
Malme-3M = tested on: Malme-3M
RPMI-8226 = tested on: RPMI-8226
K562 = tested on: K562

Measured: GI50

COc1cccc(CC2C(=O)N/C(=N\C(C)=O)N2C)c1OC(C)=O (stereo not given)
> 100 µM: HCT-15
inactive: NCI-H460 > 100 µM | UACC-62 > 100 µM | SF-295 > 100 µM | HT-29 > 100 µM | SF-268 > 100 µM | IGROV-1 > 100 µM | M14 > 100 µM | SW-620 > 100 µM | HOP-62 > 100 µM | PC-3 > 100 µM | OVCAR-5 > 100 µM | ACHN > 100 µM | 786-0 > 100 µM | CCRF-CEM > 100 µM | Hs-578T > 100 µM | SK-OV-3 > 100 µM | HCC 2998 > 100 µM | SK-MEL-5 > 100 µM | NCI/ADR-RES > 100 µM | A549 > 100 µM | RXF 393 > 100 µM | BT-549 > 100 µM | CAKI-1 > 100 µM | HOP-92 > 100 µM | COLO 205 > 100 µM | MDA-N > 100 µM | OVCAR-8 > 100 µM | LOX IMVI > 100 µM | TK-10 > 100 µM | HL-60 > 100 µM | KM12 > 100 µM | NCI-H23 > 100 µM | NCI-H522 > 100 µM | HCT-116 > 100 µM | OVCAR-4 > 100 µM | EKVX 44 µM | MDA-MB-231 > 100 µM | DU-145 > 100 µM | SN12C > 100 µM | MCF7 > 100 µM | UO-31 > 100 µM | MDA-MB-435 > 100 µM | SNB-75 > 100 µM | SK-MEL-28 39 µM | OVCAR-3 > 100 µM | SF-539 > 100 µM | NCI-H226 > 100 µM | UACC-257 > 100 µM | U-251 > 100 µM | SK-MEL-2 > 100 µM | MOLT-4 > 100 µM | SNB-19 > 100 µM

N#CC(C#N)/N=N/c1ccc(-c2nc3ccccc3s2)cc1
inactive: A498 11.1 µM | HT-29 6.64 µM | T47D 2.22 µM | IGROV-1 6 µM | M14 8.73 µM | SW-620 4.79 µM | PC-3 2.8 µM | OVCAR-5 28 µM | ACHN 3.68 µM | 786-0 8.36 µM | SR 3.23 µM | SK-MEL-5 2.74 µM | NCI/ADR-RES 3.54 µM | RXF 393 4.23 µM | Malme-3M 3.15 µM | BT-549 5.19 µM | CAKI-1 2.81 µM | HOP-92 1.48 µM | COLO 205 4.04 µM | MDA-N 4.93 µM | OVCAR-8 4.37 µM | LOX IMVI 7 µM | TK-10 3.98 µM | NCI-H23 2.93 µM | NCI-H522 2.65 µM | HCT-116 3.78 µM | OVCAR-4 6.49 µM | EKVX 7.03 µM | DU-145 5.79 µM | SN12C 2.78 µM | MCF7 4.53 µM | UO-31 7.46 µM | MDA-MB-435 5.6 µM | SNB-75 25.9 µM | SK-MEL-28 10.4 µM | RPMI-8226 1.51 µM | SF-539 9.33 µM | UACC-257 3.1 µM | SK-MEL-2 4.73 µM | MOLT-4 1.33 µM
3.59 µM: HCT-15

Cc1csc(N/C=C2\C(=O)Oc3ccccc3C2=O)n1
22.5 µM: HCT-15
inactive: UACC-62 24.6 µM | HT-29 36 µM | SF-268 26.5 µM | IGROV-1 24.7 µM | M14 35.8 µM | SW-620 33.2 µM | PC-3 30.2 µM | OVCAR-5 58.6 µM | ACHN 9.02 µM | 786-0 34.8 µM | CCRF-CEM 35.8 µM | Hs-578T 20.1 µM | SK-OV-3 7.05 µM | SK-MEL-5 23.9 µM | NCI/ADR-RES 35.7 µM | A549 38.7 µM | Malme-3M 20.5 µM | BT-549 25.6 µM | CAKI-1 19.8 µM | HOP-92 17.9 µM | COLO 205 35 µM | MDA-N 33.2 µM | OVCAR-8 32 µM | LOX IMVI 22.1 µM | TK-10 17.1 µM | KM12 40 µM | NCI-H23 18.2 µM | NCI-H522 26.4 µM | K562 81.7 µM | HCT-116 28.4 µM | OVCAR-4 32.7 µM | EKVX 21.3 µM | MDA-MB-231 20.2 µM | DU-145 29 µM | MCF7 25.9 µM | UO-31 11.7 µM | MDA-MB-435 24.9 µM | SNB-75 10.4 µM | OVCAR-3 26.7 µM | SF-539 26.9 µM | NCI-H226 24.2 µM | UACC-257 45.2 µM | U-251 26.2 µM | SK-MEL-2 13.4 µM | MOLT-4 41 µM | SNB-19 33.7 µM

CCN(C(=O)N[C@H](C(=O)N[C@@H](CSC)C(=O)N[C@@H](C)C(=O)OC)C(C)C)c1ccccc1
inactive: NCI-H460 15.8 µM | UACC-62 13.8 µM | SF-295 17.9 µM | HT-29 13.2 µM | T47D 26.4 µM | IGROV-1 10.4 µM | M14 14.2 µM | SW-620 14.6 µM | HOP-62 19.8 µM | PC-3 16.9 µM | OVCAR-5 15.5 µM | ACHN 15.6 µM | 786-0 17.2 µM | CCRF-CEM 2.94 µM | SK-OV-3 15 µM | HCC 2998 19.6 µM | SR 3.83 µM | SK-MEL-5 16.7 µM | NCI/ADR-RES > 100 µM | A549 23.6 µM | RXF 393 17.7 µM | Malme-3M 12.8 µM | BT-549 18.1 µM | CAKI-1 20 µM | HOP-92 12.8 µM | COLO 205 17.9 µM | MDA-N 17.3 µM | OVCAR-8 17.2 µM | LOX IMVI 10.4 µM | TK-10 13.6 µM | KM12 15.3 µM | NCI-H23 17.8 µM | NCI-H522 10.2 µM | K562 13.1 µM | HCT-116 16.7 µM | OVCAR-4 20 µM | EKVX 13.5 µM | MDA-MB-231 15.1 µM | DU-145 17.4 µM | SN12C 17.9 µM | MCF7 16.1 µM | UO-31 17.5 µM | MDA-MB-435 14.7 µM | SNB-75 12.4 µM | SK-MEL-28 15.3 µM | OVCAR-3 20 µM | SF-539 19.6 µM | NCI-H226 16.3 µM | UACC-257 12.4 µM | U-251 15.9 µM | SK-MEL-2 20.3 µM | MOLT-4 8.3 µM | SNB-19 19.3 µM
17.8 µM: HCT-15

COc1cc(C2S/C(=C/c3ccccc3)C(=O)N2c2cc(Cl)ccc2Cl)cc(OC)c1OC (stereo not given)
inactive: NCI-H460 > 100 µM | UACC-62 31.8 µM | SF-295 60.3 µM | A498 > 100 µM | HT-29 47.1 µM | SF-268 21.6 µM | T47D 53.7 µM | IGROV-1 18.9 µM | M14 19.6 µM | SW-620 36 µM | HOP-62 46.7 µM | PC-3 31.6 µM | ACHN 35.8 µM | 786-0 18.8 µM | CCRF-CEM 35.2 µM | SK-OV-3 > 100 µM | HCC 2998 > 100 µM | SR 44.9 µM | SK-MEL-5 35.8 µM | NCI/ADR-RES 28.2 µM | A549 91.8 µM | RXF 393 39.4 µM | Malme-3M 32.8 µM | BT-549 39.5 µM | CAKI-1 39.2 µM | HOP-92 51.2 µM | COLO 205 55.3 µM | MDA-N 34.5 µM | OVCAR-8 36.3 µM | LOX IMVI 15.8 µM | TK-10 > 100 µM | HL-60 31 µM | KM12 19 µM | NCI-H23 49.4 µM | NCI-H522 21.9 µM | K562 47 µM | HCT-116 12.5 µM | EKVX 24.2 µM | MDA-MB-231 40.3 µM | DU-145 35 µM | SN12C 45.9 µM | MCF7 27 µM | UO-31 55.7 µM | MDA-MB-435 34.1 µM | SK-MEL-28 64.9 µM | RPMI-8226 36.2 µM | OVCAR-3 32.3 µM | SF-539 17.9 µM | NCI-H226 40.4 µM | UACC-257 > 100 µM | U-251 35.7 µM | SK-MEL-2 38.8 µM | MOLT-4 34.8 µM | SNB-19 71.9 µM
38.3 µM: HCT-15
